Data on 4 compounds can be found in US6121320A, “Combination anti-leukemic therapy by utilizing suramin and biologic response modifiers” (The University of Kentucky Research Foundation, priority 1998, dated 2000).

Data set [1] deals with HL-60. Nature of the data set: HL-60 leukemia cell proliferation (MTT), single agents and combinations, CI-isobologram analysis. The data set is classed as cell-based, human. The protocol: (§1) Assays of proliferation consist of cell proliferation (3H-thymidine) assay as previously described or the MTT assay after 3-5 days of exposure to the agents. Cell proliferation is assayed using a modification of the original MTT calorimetric assay described by Mosmann (53). To better delineate the issues of proliferation (and inhibition thereof) versus differentiation, which is induced by certain of the agents being proposed for testing, an alternative method would utilize simple cell counting (Courter, Inc.) of aliquots at 3 and 5 days of continuous exposure with concomitant analysis of induced differentiation by cell morphology (NBT-positive) conducted. The percentage of differentiated cells in liquid culture determined by the NBT reduction test (as described, (54) allows for an estimate of the total number of cells which are still blast cells and therefore considered capable of continued leukemogenic growth. The most promising combinations are used to examine de novo acute myeloid leukemia patient samples in like fashion.
The antigrowth factor activity of suramin was tested alone and in combination with all-trans retinoic acid (ATRA) against the human leukemic line HL-60 or its ATRA resistant subclone, HL-60R, to assess if an agent with the ability to interrupt putative autocrine driven leukemic cell growth could reestablish sensitivity to ATRA. […] Synergy or antagonism between combinations was then assessed using a combination-index CI-isobolo gram method.
Cell lines chosen for this study include the ATRA sensitive human acute leukemia HL-60 and the ATRA resistant subclone, HL-60R. While originally described as an acute promyelocytic cell line, more recent work categorizes this line as an acute myelogenous leukemia. The sensitivity of these cell lines to ATRA and suramin alone as single agents has been assessed. […] The assays of proliferation consist of cell proliferation after 3-5 days of exposure to the agents. Cell proliferation is assayed using a modification of the original MTT calorimetric assay described by Mossman, et al. In similar fashion, a dose response curve to cytosine arabinoside has been generated. Using the IC50 values for each agent alone allows selection of reasonable drug combinations. The data software program, "Dose effect analysis with microcomputers" (BioSoft, Inc.) developed by Dr. Chou, et al. is utilized. This computer analysis program allows the assessment of drug combinations for synergistic, additive, or antagonistic interactions.

The subject of data set [2] is acute promyelocytic leukemia (APL). The settings on record: cited from earlier work.
A further data set addresses rhGM-CSF (Homo sapiens, UniProt P04141). Briefly: Competition for nucleotide photoprobe incorporation into rhGM-CSF. The data set is classed as binding.
The test system of a further data set is Mo7E. Briefly: Proliferation of GM-CSF dependent Mo7E cells. The format is cell-based, human. The settings on record: read-out: Half-maximal inhibition of Mo/7E growth (GM-CSF dependent). From the text: control. Similarly, cell proliferating of GM-CSF
dependent (Mo7E) and autonomously proliferation (GM-CSF
independent) human leukemia cells (HL-60) gave half-
maximal inhibition of growth. Results are expressed as […]

The test system of a further data set is HL-60R. Nature of the data set: HL-60R (ATRA resistant subclone) proliferation (MTT), single agents and combinations. The format is cell-based, human. The protocol: as §1, with “fashion. […]” for “fashion.”
Cell lines chosen for this study include the ATRA sensitive human acute leukemia HL-60 and the ATRA resistant subclone, HL-60R. […] The sensitivity of these cell lines to ATRA and suramin alone as single agents has been assessed. […]

In the next data set the test system is NB4. Briefly: Activity against NB4 leukemia cells. The format is cell-based, human. The protocol: While originally described as an acute promyelocytic cell line, more recent work categorizes this line as an acute myelogenous leukemia.
as §1

The next data set has as its system follicular lymphoma. The settings on record: evaluable follicular lymphoma patients; cited from earlier work.
Data set [3] has as its system HL-60. The settings on record: HL-60 in vitro, reference 48; cited from earlier work.
[4] abbreviates: Homo sapiens, HL-60, 120 h, read-out: Fractional Inhibition.
[5] abbreviates: photoprobe incorporation into rhGM-CSF compared to control, read-out: Half-maximal inhibition of nucleotide binding.
Setting [6] is: Homo sapiens, HL-60, autonomously proliferating cells, read-out: Half-maximal inhibition of HL-60 growth (GM-CSF independent).

Molecules are shown by their SMILES. Where two headings read alike, the source gives them in different places.

Chain of rhGM-CSF (P04141 18-144): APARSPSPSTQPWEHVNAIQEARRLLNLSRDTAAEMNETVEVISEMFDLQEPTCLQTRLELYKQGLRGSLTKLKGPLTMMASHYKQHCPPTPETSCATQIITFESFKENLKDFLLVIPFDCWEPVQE

With `CC1=C(/C=C/C(C)=C/C=C/C(C)=C/C(=O)O)C(C)(C)CCC1` [ATRA, all-trans retinoic acid], in the data set on HL-60 [1] (HL60, 5 days exposure), the “m (slope of the median-effect plot)” value is given as “.2729”. The IC50 in the data set on HL-60 [1] (Homo sapiens, HL-60, 120 h, read-out: Dm (antilog of x-intercept of the median-effect plot, the potency (IC50))) was 0.00022 µM. In addition, in the data set with HL-60 [1] (setting [4]), the inhibition at 0.001 µM is 56.1%, the inhibition at 0.01 µM is 77.7%, the inhibition at 0.02 µM amounted to 79% and the inhibition at 0.04 µM turned out to be 82.3%. Also, in the data set on HL-60 [1] (setting [4]), the inhibition at 0.08 µM was found to be 82.6% and the inhibition at 0.16 µM is 83.5%. In addition, the “Patients resistant to ATRA at diagnosis or relapsing” value in data set [2] (APL) is 30-40%. The Complete remission rate in data set [2] (ATRA as a single agent in APL) was no less than 70%. In addition, the “Patients with long term remissions” value in data set [2] (ATRA treatment followed by chemotherapy) is recorded as 60%. Moreover, the “Patients with ATRA syndrome” value in data set [2] (subset of APL patients, fever, respiratory distress, chest x-ray abnormalities, weight gain) is 5-20%.

`O=C(Nc1cccc(C(=O)Nc2ccc(S(=O)(=O)O)c3cc(S(=O)(=O)O)cc(S(=O)(=O)O)c23)c1)Nc1cccc(C(=O)Nc2ccc(S(=O)(=O)O)c3cc(S(=O)(=O)O)cc(S(=O)(=O)O)c23)c1` [NF023]: the IC50 on rhGM-CSF (setting [5]) stood at 5 µM; with HL-60 [1] (setting [6]), 175 µM; in the data set with Mo7E (Homo sapiens, Mo7e), 102 µM.

On to `O=C(Nc1cc(C(=O)Nc2ccc(S(=O)(=O)O)cc2)cc(C(=O)Nc2ccc(S(=O)(=O)O)cc2)c1)Nc1cc(C(=O)Nc2ccc(S(=O)(=O)O)cc2)cc(C(=O)Nc2ccc(S(=O)(=O)O)cc2)c1` [NF110], for which the Enhanced activity is 5-10 fold with HL-60R (against HL-60R, relative to suramin) and 5-10 fold in the data set on HL-60 [1] (against HL-60, relative to suramin). The IC50 came to 1.5 µM on rhGM-CSF (setting [5]); 6 µM in the data set with HL-60 [1] (autonomously proliferating cells, read-out: Half-maximal inhibition of HL-60 growth (GM-CSF independent)); 52 µM in the data set with Mo7E.

As to `Cc1ccc(C(=O)Nc2ccc(S(=O)(=O)O)c3cc(S(=O)(=O)O)cc(S(=O)(=O)O)c23)cc1NC(=O)c1cccc(NC(=O)Nc2cccc(C(=O)Nc3cc(C(=O)Nc4ccc(S(=O)(=O)O)c5cc(S(=O)(=O)O)cc(S(=O)(=O)O)c45)ccc3C)c2)c1` [suramin], the “Inhibition of growth, in words” value in the data set with HL-60R (HL-60R) and in the data set with HL-60 [1] (HL-60) was “active” in each case. Moreover, the IC50 at rhGM-CSF came out at 2.5 µM; in the data set on HL-60 [1] (Homo sapiens, HL-60, 120 h, HL60, 5 days exposure, doses printed in μM, read-out: Dm (antilog of x-intercept of the median-effect plot, the potency (IC50))), 38.7 µM; with HL-60 [1] (setting [6]) it was 38 µM; in the data set on Mo7E (Homo sapiens, Mo7e) it was 68 µM. Moreover, in the data set with HL-60 [1] (HL60, 5 days exposure), the “m (slope of the median-effect plot)” value turned out to be 1.725. Moreover, the inhibition at 3.5 µM in the data set with HL-60 [1] (Homo sapiens, HL-60, 120 h, suramin 3.5 μM, HL60, 5 days exposure, read-out: Fractional Inhibition) was determined as 2%. For the same compound, the inhibition at 7 µM with HL-60 [1] (Homo sapiens, HL-60, 120 h, suramin 7.0 μM, HL60, 5 days exposure, read-out: Fractional Inhibition) worked out at 4.7%. The inhibition at 14 µM with HL-60 [1] (Homo sapiens, HL-60, 120 h, suramin 14.0 μM, HL60, 5 days exposure, read-out: Fractional Inhibition) stood at 9.3%. Further, the inhibition at 28 µM in the data set on HL-60 [1] (Homo sapiens, HL-60, 120 h, suramin 28.0 μM, HL60, 5 days exposure, read-out: Fractional Inhibition) worked out at 41.9%. Moreover, the inhibition at 56 µM in the data set with HL-60 [1] (Homo sapiens, HL-60, 120 h, suramin 56.0 μM, HL60, 5 days exposure, read-out: Fractional Inhibition) was determined as 67.8%. The “Activity, in words” value in the data set with NB4 is recorded as “active”. For the same compound, the “Patients achieving partial remission” value with follicular lymphoma is recorded as “five of nine”. For the same compound, in the data set on HL-60 [3], the “Suppression of proliferation, in words” value was “strongly suppress”.
